Among the data in patent publication US9096624B2 (OSI Pharmaceuticals, LLC, priority 2009, dated 2015) are IC50 values, retold here.

Molecules are shown by their SMILES. Counter-ions that a name gives are not always drawn.

As usually defined, the IC50 is the midpoint of a concentration-inhibition curve. A low value points to greater potency in that assay.

In this experiment the target is FAK (Homo sapiens, UniProt Q05397). As to the kind of experiment: biochemical.
FAK, sequence (Q05397 whole entry): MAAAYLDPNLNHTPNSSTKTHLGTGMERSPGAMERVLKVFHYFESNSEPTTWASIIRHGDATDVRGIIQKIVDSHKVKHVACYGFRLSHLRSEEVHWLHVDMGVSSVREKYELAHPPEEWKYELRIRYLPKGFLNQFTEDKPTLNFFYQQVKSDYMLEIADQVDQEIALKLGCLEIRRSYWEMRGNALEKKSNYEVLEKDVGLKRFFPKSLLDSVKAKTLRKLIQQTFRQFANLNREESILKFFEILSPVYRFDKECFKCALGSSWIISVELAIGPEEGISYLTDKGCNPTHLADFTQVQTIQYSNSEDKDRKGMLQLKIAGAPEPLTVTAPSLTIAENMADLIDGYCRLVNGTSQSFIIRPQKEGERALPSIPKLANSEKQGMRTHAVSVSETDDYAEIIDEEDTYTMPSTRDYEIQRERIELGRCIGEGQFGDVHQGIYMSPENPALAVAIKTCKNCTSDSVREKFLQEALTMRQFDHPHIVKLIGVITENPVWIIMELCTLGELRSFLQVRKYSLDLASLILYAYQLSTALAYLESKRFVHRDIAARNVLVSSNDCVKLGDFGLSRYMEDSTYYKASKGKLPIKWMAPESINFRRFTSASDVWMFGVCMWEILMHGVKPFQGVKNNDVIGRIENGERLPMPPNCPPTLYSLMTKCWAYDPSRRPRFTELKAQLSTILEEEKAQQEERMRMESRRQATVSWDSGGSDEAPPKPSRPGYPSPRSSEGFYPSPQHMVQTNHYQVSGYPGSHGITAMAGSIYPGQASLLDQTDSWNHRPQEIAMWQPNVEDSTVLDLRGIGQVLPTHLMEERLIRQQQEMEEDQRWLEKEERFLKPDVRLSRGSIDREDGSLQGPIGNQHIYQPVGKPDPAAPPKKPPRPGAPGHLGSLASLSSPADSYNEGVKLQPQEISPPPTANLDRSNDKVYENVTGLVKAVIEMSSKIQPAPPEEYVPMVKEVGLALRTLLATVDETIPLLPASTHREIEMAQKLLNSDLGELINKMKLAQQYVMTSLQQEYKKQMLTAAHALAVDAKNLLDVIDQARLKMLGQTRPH
For the compound `CCOP(=O)(O)C1CCC(c2ccc(Nc3nc(Nc4ccccc4OC)ncc3C(F)(F)F)c3c2CN(C)C3=O)CC1` (mixture of isomers) [Example 255, Ethyl hydrogen {4-[7-({2-[(2-methoxyphenyl)amino]-5-(trifluoromethyl)pyrimidin-4-yl}amino)-2-methyl-1-oxo-2,3-dihydro-1H-isoindol-4-yl]cyclohexyl}phosphonate trifluoroacetate], the IC50 is < 1000 nM.
Next, `CCOP(=O)(Cc1ccc(Nc2ncc(C(F)(F)F)c(Nc3ccc([C@H]4CC[C@@H](C(=O)O)CC4)c4c3C(=O)N(C)C4)n2)c(OC)c1)OCC` [Example 89, Cis-4-(7-{[2-({4-[(diethoxyphosphoryl)methyl]-2-methoxyphenyl}amino)-5-(trifluoromethyl)pyrimidin-4-yl]amino}-2-methyl-1-oxo-2,3-dihydro-1H-isoindol-4-yl)cyclohexanecarboxylic acid]: < 1000 nM; `CCOP(=O)(Cc1ccc(Nc2ncc(C(F)(F)F)c(Nc3ccc([C@H]4CC[C@H](O)CC4)c4c3C(=O)N(C)C4)n2)cc1)OCC` [Example 91, Diethyl (4-{[4-{[7-(trans-4-hydroxycyclohexyl)-2-methyl-3-oxo-2,3-dihydro-1H-isoindol-4-yl]amino}-5-(trifluoromethyl)pyrimidin-2-yl]amino}benzyl)phosphonate]: < 1000 nM.
On to `CCOP(=O)(Cc1ccc(Nc2ncc(C(F)(F)F)c(Nc3ccc([C@H]4CC[C@H](O)CC4)c4c3C(=O)N(C)C4)n2)c(OC)c1)OCC` [Example 93, Diethyl (4-{[4-{[7-(trans-4-hydroxycyclohexyl)-2-methyl-3-oxo-2,3-dihydro-1H-isoindol-4-yl]amino}-5-(trifluoromethyl)pyrimidin-2-yl]amino}-3-methoxybenzyl) phosphonate hydrochloride], for which the IC50 was < 1000 nM.
In the case of `CCOP(=O)(Cc1ccc(Nc2ncc(C(F)(F)F)c(Nc3ccc([C@H]4CC[C@@H](N5CCN(C)CC5)CC4)c4c3C(=O)N(C)C4)n2)c(OC)c1)OCC` [Example 95, Diethyl (3-methoxy-4-{[4-({2-methyl-7-[cis-4-(4-methylpiperazin-1-yl)cyclohexyl]-3-oxo-2,3-dihydro-1H-isoindol-4-yl}amino)-5-(trifluoromethyl)pyrimidin-2-yl]amino}benzyl)phosphonate], the IC50 was < 1000 nM.
For the compound `CCOP(=O)(Cc1ccc(Nc2ncc(C(F)(F)F)c(Nc3ccc(-c4cnn(CCOC)c4)c4c3C(=O)N(C)C4)n2)cc1)OCC` [Example 97, Diethyl (4-{[4-({7-[1-(2-methoxyethyl)-1H-pyrazol-4-yl]-2-methyl-3-oxo-2,3-dihydro-1H-isoindol-4-yl}amino)-5-(trifluoromethyl)pyrimidin-2-yl]amino}benzyl)phosphonate], the 50% inhibitory concentration (IC50) is < 1000 nM.
As for `CCOP(=O)(Cc1ccc(Nc2ncc(C(F)(F)F)c(Nc3ccc(Br)cc3C(=O)NC)n2)cc1)OCC` [Example 106, Diethyl (4-{[4-{[4-bromo-2-(methylcarbamoyl)phenyl]amino}-5-(trifluoromethyl)pyrimidin-2-yl]amino}benzyl)phosphonate], the IC50 was < 1000 nM.
Next, `CCOP(=O)(Cc1ccc(Nc2ncc(C(F)(F)F)c(Nc3ccccc3C(=O)NC)n2)c(Br)c1)OCC` [Example 108, Diethyl (3-bromo-4-{[4-{[2-(methylcarbamoyl)phenyl]amino}-5-(trifluoromethyl)pyrimidin-2-yl]amino}benzyl) phosphonate]: < 1000 nM; `CCOP(=O)(Cc1ccc(Nc2ncc(C(F)(F)F)c(Nc3ccccc3C(=O)N(C)C)n2)cc1)OCC` [Example 111, Diethyl (4-{[4-{[2-(dimethylcarbamoyl)phenyl]amino}-5-(trifluoromethyl)pyrimidin-2-yl]amino}benzyl)phosphonate]: < 1000 nM; `CCOP(=O)(Cc1ccc(Nc2ncc(C(F)(F)F)c(Nc3ccccc3C(=O)N(C)C)n2)c(OC)c1)OCC` [Example 112, Diethyl (4-{[4-{[2-(dimethylcarbamoyl)phenyl]amino}-5-(trifluoromethyl)pyrimidin-2-yl]amino}-3-methoxybenzyl)phosphonate]: < 1000 nM.
